According to patent US20210196598A1, “Specific Co-Aggregation Inhibition by Arginine” (priority 2018, published 2021):

Tests used:
[1] = test system: co-aggregates of S. gordonii (commensal) and A. naeslundii (commensal); test: FlowCam coaggregation, commensal:commensal pair S. gordonii and A. naeslundii; format: cell-based, Streptococcus gordonii and Actinomyces naeslundii
Protocol: (§1) Coaggregation was studied using FlowCam® technology (Fluid Imaging Technologies, ME, USA). S. gordonii DL1, A. oris MG1, P. gingivalis W83, and F. nucleatum ATCC 25586 were harvested from batch cultures and washed once in coaggregation buffer by centrifuging for 10 mins at 3,000 g. After centrifugation, the pellets were re-suspended in coaggregation buffer and adjusted to an optical density of 1.0 (±0.1) at 600 nm. The cell suspensions were then subject to a 5-fold dilution in coaggregation buffer. Each pair was then loaded onto the FlowCam™ device and allowed to sit for one minute. The pairs were subsequently pumped through the device until they reached the flow cell. Data collection was initiated once the Olympus UPlanFLN 10X/0.30 objective was focused on the flowing particles. The FlowCam™ was run for 45 seconds at a flow rate of 0.3 ml/min and images were acquired at 10 frames per second. Flash duration was set to 8 μSec and the particle sizes were measured using area based diameter (ABD) with a particle filter set to detect between 5 and 10000 μm. The same procedure was tested for each pair while suspended in coaggregation buffer supplemented with various concentrations of arginine or lysine.
(§2) The following three pairs of co-aggregates were co-cultured and treated with either buffer (untreated; control) 86 mM arginine or 100 mM arginine:
1) Commensal oral bacteria Streptococcus gordonii and Actinomyces naeslundii,
(§3) The reduction in aggregate sizes was greater in each pair of commensal/pathogenic bacteria, i.e. the co-aggregates of A. naeslundii (commensal) and P. gingivalis (pathogenic) and the co-aggregates of S. gordonii (commensal) and F. nucleatum (pathogenic) compared to the commensal/commensal co-aggregates of S. gordonii (commensal) and A. naeslundii (commensal).
(§4) In FIG. 2, the data from the treated co-aggregates was normalized against untreated co-aggregates. FIG. 2 reflects a selective action of arginine against specific co-aggregates. […]

[2] = test system: co-aggregates of A. naeslundii (commensal) and P. gingivalis (pathogenic); test: FlowCam coaggregation, commensal:pathogenic pair A. naeslundii and P. gingivalis; format: cell-based, Actinomyces naeslundii and Porphyromonas gingivalis
Protocol: as §1, §2
2) Commensal oral bacterium A. naeslundii and pathogenic bacterium Porphyromonas gingivalis,
as §3, §4

[3] = test system: co-aggregates of S. gordonii (commensal) and F. nucleatum (pathogenic); test: FlowCam coaggregation, commensal:pathogenic pair S. gordonii and F. nucleatum; format: cell-based, Streptococcus gordonii and Fusobacterium nucleatum
Protocol: as §1, §2
3) Commensal oral bacterium S. gordonii and pathogenic bacterium Fusobacterium nucleatum.
as §3, §4

[4] = test system: S. gordonii and A. oris co-aggregate pair; test: Visual Coaggregation Score, S. gordonii + A. oris; format: cell-based; settings: for Visual Coaggregation Score (0-4): post-treatment
Protocol: (§5) The following six pairs of co-aggregates were co-cultured and treated with either 86 mM arginine, 400 mM arginine, 86 mM lysine or 400 mM lysine:
1) Commensal oral bacteria S. gordonii and A. oris;
(§6) Bacterial aggregation was scored visually using a Visual Coaggregation Score (0-4) scoring system.

[5] = test system: S. gordonii and V. atypica co-aggregate pair; test: Visual Coaggregation Score, S. gordonii + V. atypica; format: cell-based; settings: post-treatment
Protocol: as §5
2) Commensal oral bacterium S. gordonii and pathogenic oral bacterium V. atypica;
as §6

[6] = test system: S. gordonii and F. nucleatum co-aggregate pair; test: Visual Coaggregation Score, S. gordonii + F. nucleatum; format: cell-based; settings: post-treatment
Protocol: as §5
3) Commensal oral bacterium S. gordonii and pathogenic oral bacterium F. nucleatum;
as §6

[7] = test system: A. oris and V. atypica co-aggregate pair; test: Visual Coaggregation Score, A. oris + V. atypica; format: cell-based; settings: post-treatment
Protocol: as §5
4) Commensal oral bacterium A. oris and pathogenic oral bacterium V. atypica;
as §6

[8] = test system: A. oris and F. nucleatum co-aggregate pair; test: Visual Coaggregation Score, A. oris + F. nucleatum; format: cell-based; settings: post-treatment
Protocol: as §5
5) Commensal oral bacterium A. oris and pathogenic oral bacterium F. nucleatum; and
as §6

[9] = test system: A. oris and P. gingivalis co-aggregate pair; test: Visual Coaggregation Score, A. oris + P. gingivalis; format: cell-based; settings: post-treatment
Protocol: as §5
6) Commensal oral bacterium A. oris and pathogenic oral bacterium P. gingivalis.
as §6

[10] = test system: commensal/pathogenic co-aggregate pairs; test: Visual coaggregation scoring, summary in words over the co-aggregate pairs of Table 1; format: cell-based
[11] = test system: oral biofilms (plaque); test: Destabilization of oral biofilms (plaque); format: cell-based; settings: biofilms treated with the amino acid
[12] = 86 mM and 100 mM arginine, FIG. 1
[13] = Streptococcus gordonii, read-out: inhibition of co-aggregation, normalized against untreated co-aggregates
[14] = Actinomyces naeslundii, read-out: inhibition of co-aggregation, normalized against untreated co-aggregates

Row | Compound | Visual Coaggregation Score (0-4) ([4]; 86 mM amino acid) | Visual Coaggregation Score (0-4) ([4]; 400 mM amino acid) | Visual Coaggregation Score (0-4) ([5]; 86 mM amino acid) | Visual Coaggregation Score (0-4) ([5]; 400 mM amino acid) | Visual Coaggregation Score (0-4) ([6]; 86 mM amino acid) | Visual Coaggregation Score (0-4) ([6]; 400 mM amino acid) | Visual Coaggregation Score (0-4) ([7]; 86 mM amino acid) | Visual Coaggregation Score (0-4) ([7]; 400 mM amino acid) | Visual Coaggregation Score (0-4) ([8]; 86 mM amino acid) | Visual Coaggregation Score (0-4) ([8]; 400 mM amino acid) | Visual Coaggregation Score (0-4) ([9]; 86 mM amino acid) | Visual Coaggregation Score (0-4) ([9]; 400 mM amino acid) | effect on oral biofilms / total biofilm biomass, in words [11] | further results
1 | N=C(N)NCCC[C@H](N)C(=O)O [arginine] | 4 | 3-4 | 2-3 | 2 | 0-1 | 0-1 | 0-1 | 0 | 0-1 | 0 | 0-1 | 0 | reductions in total biofilm biomass | bacterial aggregate sizes (area based diameter), in words [1, 12]: dose dependent reduction; inhibition at 86000 µM [1, 13]: 11%; inhibition at 100000 µM [1, 13]: 14%; bacterial aggregate sizes (area based diameter), in words [2, 12]: dose dependent reduction; inhibition at 86000 µM [2, 14]: 22%; inhibition at 100000 µM [2, 14]: 64%; bacterial aggregate sizes (area based diameter), in words [3, 12]: dose dependent reduction; inhibition at 86000 µM [3, 13]: 25%; inhibition at 100000 µM [3, 13]: 37%; inhibitory effect on aggregation, in words ([4]; 86 mM and 100 mM arginine (so in the source), commensal/commensal pair): none to little inhibitory effect; inhibition of aggregation, in words ([10]; 86 mM and 100 mM arginine (so in the source), each of the five commensal/pathogenic pairs): selectively inhibited aggregation
2 | NCCCC[C@H](N)C(=O)O [lysine, reference compound] | 4 | 4 | 4 | 3 | 3-4 | 3 | 3 | 0-1 | 3-4 | 2-3 | 1-2 | 0-1 | No similar disruptive effects | anti-coadhesion functionality, in words ([10]; lysine in any of the corresponding pairs): Little to no anti-coadhesion functionality
